Measured values taken from patent US8962608B2, “Cycloalkylnitrile pyrazole carboxamides as janus kinase inhibitors” (Merck Sharp & Dohme Corp., priority 2011, dated 2015).

Experiments:
[1] = target: JAK2 (recombinant purified GST-tagged catalytic domain) (Homo sapiens (Human), UniProt O60674); experiment: biochemical;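 note: biochemical JAK kinase assay with HTRF detection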
[2] = target: JAK1 (recombinant purified GST-tagged catalytic domain) (Homo sapiens (Human), UniProt P23458); experiment: biochemical;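 note: biochemical assay with HTRF read-out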
JAK1 (recombinant purified GST-tagged catalytic domain), sequence (P23458 875-1153): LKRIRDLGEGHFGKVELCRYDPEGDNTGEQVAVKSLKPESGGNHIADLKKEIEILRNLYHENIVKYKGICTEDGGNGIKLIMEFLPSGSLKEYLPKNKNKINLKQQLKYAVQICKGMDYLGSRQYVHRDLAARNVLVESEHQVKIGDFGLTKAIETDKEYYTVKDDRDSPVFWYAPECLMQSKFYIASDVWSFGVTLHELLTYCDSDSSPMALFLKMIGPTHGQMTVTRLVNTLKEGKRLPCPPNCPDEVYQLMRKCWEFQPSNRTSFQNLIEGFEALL

JAK2 (recombinant purified GST-tagged catalytic domain), sequence (O60674 849-1124): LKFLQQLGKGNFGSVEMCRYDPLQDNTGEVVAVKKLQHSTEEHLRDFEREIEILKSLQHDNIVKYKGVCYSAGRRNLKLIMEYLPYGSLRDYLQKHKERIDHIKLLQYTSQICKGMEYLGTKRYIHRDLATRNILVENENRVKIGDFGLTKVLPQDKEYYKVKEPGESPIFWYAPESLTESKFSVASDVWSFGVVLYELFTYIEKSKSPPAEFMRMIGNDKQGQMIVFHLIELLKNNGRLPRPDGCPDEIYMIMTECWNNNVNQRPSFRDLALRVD

Row | SMILES | IC50 [1] | IC50 [2]
1 | N#Cc1ccc(Nc2nn([C@H]3CCCC[C@H]3C#N)cc2C(N)=O)cc1 (racemic) [Example 17-16, 1-[(1S,2R and 1R,2S)-2-cyanocyclohexyl]-3-[(4-cyanophenyl)amino]-1H-pyrazole-4-carboxamide] | 36 nM | 11 nM
2 | N#C[C@H]1CCCC[C@@H]1n1cc(C(N)=O)c(Nc2ccc(S(=O)(=O)C(F)(F)F)c(CO)c2)n1 (racemic) [Example 17-17, 1-[(1S,2S and 1R,2R)-2-cyanocyclohexyl]-3-({3-(hydroxymethyl)-4-[(trifluoromethyl)sulfonyl]phenyl}amino)-1H-pyrazole-4-carboxamide] | 5 nM | 1 nM
3 | Cn1cc(-c2cc(Nc3nn([C@H]4CCCC[C@@H]4C#N)cc3C(N)=O)ccn2)cn1 (racemic) [Example 17-22, 1-[(1S,2S and 1R,2R)-2-cyanocyclohexyl]-3-{[2-(1-methyl-1H-pyrazol-4-yl)pyridin-4-yl]amino}-1H-pyrazole-4-carboxamide] | 60 nM | 3 nM
4 | N#C[C@H]1CCCC[C@@H]1n1cc(C(N)=O)c(Nc2ccc(CN)cc2)n1 (racemic) [Example 17-45, 3-{[4-(aminomethyl)phenyl]amino}-1-[(1S,2S and 1R,2R)-2-cyanocyclohexyl]-1H-pyrazole-4-carboxamide] | 10 nM | 3 nM
5 | N#C[C@H]1CCCCC1n1cc(C(N)=O)c(Nc2ccc(S(=O)(=O)CF)cc2)n1 (mixture of isomers) [Example 17-65, 1-[(1S,2S and 1R,2R)-2-cyanocyclohexyl]-3-({4-[(fluoromethyl)sulfonyl]phenyl}amino)-1H-pyrazole-4-carboxamide] | 2 nM | 0.16 nM
6 | N#C[C@H]1CCCC[C@@H]1n1cc(C(N)=O)c(Nc2ccc(F)c(F)c2)n1 (racemic) [Example 17-100, 1-[(1S,2S and 1R,2R)-2-cyanocyclohexyl]-3-[(3,4-difluorophenyl)amino]-1H-pyrazole-4-carboxamide] | 34 nM | 4 nM
7 | N#C[C@H]1CCCC[C@@H]1n1cc(C(N)=O)c(Nc2ccc(Cl)cc2)n1 (racemic) [Example 17-104, 3-[(4-chlorophenyl)amino]-1-[(1S,2S and 1R,2R)-2-cyanocyclohexyl]-1H-pyrazole-4-carboxamide] | 25 nM | 2 nM
8 | Cn1cc(-c2ccc(Nc3nn(C4CCCC[C@@H]4C#N)cc3C(N)=O)cn2)cn1 (mixture of isomers) [Example 21-2, 1-[(1S,2S and 1R,2R)-2-cyanocyclohexyl]-3-{[6-(1-methyl-1H-pyrazol-4-yl)pyridin-3-yl]amino)-1H-pyrazole-4-carboxamide] | 15 nM | 2 nM
9 | N#C[C@H]1CCCCC1n1cc(C(N)=O)c(Nc2ccc(-c3cn[nH]c3)nc2)n1 (mixture of isomers) [Example 21-3, 1-[(1S,2S and 1R,2R)-2-cyanocyclohexyl]-3-{[6-(1H-pyrazol-4-yl)pyridin-3-yl]amino}-1H-pyrazole-4-carboxamide] | 16 nM | 2 nM
10 | N#C[C@H]1CCCC(F)[C@@H]1n1cc(C(N)=O)c(Nc2ccccc2)n1 (mixture of isomers) [Example 23-1, 1-[(1R,2S and 1S,2R)-2-Cyano-6-fluorocyclohexyl]-3-(phenylamino)-1H-pyrazole-4-carboxamide] | 60 nM | 5 nM
11 | CN[C@@H]1CCC(n2cc(C(N)=O)c(Nc3ccc(F)cc3)n2)[C@@H](C#N)C1 (mixture of isomers) [Example 27-3, 1-[(1S,2S,4R and 1R,2R,4S)-2-cyano-4-(methylamino)cyclohexyl]-3-[(4-fluorophenyl)amino]-1H-pyrazole-4-carboxamide] | 25 nM | 0.8 nM
12 | CN[C@H]1CCC(n2cc(C(N)=O)c(Nc3ccc(F)cc3)n2)[C@@H](C#N)C1 (mixture of isomers) [Example 27-4, 1-[(1S,2S,4S and 1R,2R,4R)-2-cyano-4-(methylamino)cyclohexyl]-3-[(4-fluorophenyl)amino]-1H-pyrazole-4-carboxamide] | 56 nM | 1 nM
